Here are results for one compound from patent US20130251743A1, “Fungal extracts and uses thereof” (CERMEDI OY, priority 2010, published 2013).

For this test, the system named is human retinal pigment epithelial cells (hRPE). The experiment in a line: WST-1 cytotoxicity test of hRPE cells exposed to hydrogen peroxide-induced oxidative stress. It counts as cell-based. The following applies: ARPE-19 cells exposed to H2O2. The procedure: Human ARPE-19 retinal pigment epithelial cells (RPE) were obtained from American Type Culture Collection (USA). The cells were grown to confluency in a standard incubator in appropriate Dulbecco's MEM/Nut MIX F-12 medium (Gibco, UK). Oxidative stress was applied to the cells (1×10^4 cells/well) by using various concentrations of H2O2. Cytotoxicity was evaluated by two cytotoxicity tests, WST-1 test. WST-1 test reagent was purchased from Roche, Basel, Switzerland. WST-1 test is based on the cleavage of the tetrazolium salt WST-1 (4-*3-(4-iodophenyl)-2-(4-nitrophenyl)-2H-5-tetrazolio*-1,3-benzene disulfonate, slightly red) to formazan (dark red) by various mitochondrial dehydrogenase enzymes. The mean optical density values corresponding to the non-treated controls were taken as 100%. The results were expressed as percentages of the optical density of treated vs. untreated controls. Dose-response curves were drawn from the results expressed as mean±standard error of mean (SEM) by Graph Pad Prism software (GraphPad™, San Diego, US) using non-linear regression analysis. […] The statistical significance of the differences between the cultures exposed to H2O2 and tested extracts without or with serum was determined with the Student's two-tailed t-test (GraphPad Prism). […]
(Tetrazolium assays rely on reduction of a dye to a coloured formazan, in cell work by metabolically active cells.)

Consider `COc1cc(C[C@@H](CO)[C@H](CO)Cc2ccc(O)c(OC)c2)ccc1O` [secoisolariciresinol (SECO), secoisolariciresinol], for which the “protection of hRPE cells against oxidative damage (WST-1 test)” value is “did not protect hRPE cells from oxidative damage”.
